{
  "source": "patent US11466298B2",
  "about": "“Method for preparing phosphorylated keto polyols, derivatives thereof and uses thereof” (COMMISSARIAT A L'ENERGIE ATOMIQUE ET AUX ENERGIES …, priority 2017, dated 2022)",
  "key": {"[1]": {"system": "enzymes of SEQ ID NO:1-10 (RhaD)", "experiment": "LC/MS Orbitrap validation of products from 6 ketones, RhaD enzymes", "format": "biochemical", "details": "5 to 10 eq of ketone, CoCl2, pH 7.3, 5 h at RT, LC/MS detection", "procedure": "(§1) A mother solution was prepared by mixing DHAP (5.2 mL, 35 mM), CoCl2 (200 μL, 10 mM), 5 to 10 eq of ketone, adjusted to pH 7.3 and degased under Ar. In 10 vials containing each 4 mg of enzyme to screen (beforehand degased under Ar) were added 400 μL of the mother solution. The reactions were gently stirred for 5 h at RT. The aldolase was removed by filtration over ultra-centrifugal filter unit (Amicon, 10 kDa). The reaction medium was analyzed by mass spectrometry.\n(§2) The detection of the compounds of interest was performed by LC/ESI-MS method using a Dionex TCC-3000RS chromatographic system (Thermo Fisher Scientific, Courtaboeuf, France) coupled to an ultra-high resolution Orbitrap Elite hybrid mass spectrometer ((Thermo Fisher Scientific, Courtaboeuf, France) equipped with a HESI source.\n(§3) A Sequant ZICpHILIC column […], 2.1×100 mm (Merck, Darmstadt, Germany) thermostated at 15° C. was employed for HPLC separation. Mobile phase flow rate was set at 0.2 ml/min, and injection volume was 5 μl. Aqueous solution of 10 mM (NH4)2CO3 (at a pH of 9.9 adjusted by NH4OH) was used as phase A and acetonitrile was used as solvent B. The following gradient conditions were applied for elution: 1 min equilibration step at 80% of phase B; 7 min linear gradient from 80 to 40% of phase B; 3 min isocratic elution at 40% of B, return to 80% of phase B in 3 min and a reconditioning step of 8.5 min.\n(§4) Mass and product ion spectra were recorded in the ESI negative ion mode. Ion spray (IS) was set at −4.5 kV and capillary temperature at 275° C. Sheath gas, auxiliary gas and sweep gas flow rates were set at 60, 10 and 0 arbitrary units, respectively. The mass resolution power of the detector was 60000.\n(§5) Raw data were manually inspected using the Qual-browser module of Xcalibur version 2.2 (Thermo Fisher Scientific, Courtaboeuf, France) for enzymes from SEQ ID NO:1 to 20 and SEQ ID NO:23 for DHAP+dihydroxyacetone, and for SEQ ID NO:1 to 10 for the other couples of reagents."}, "[2]": {"molecular_target": "T1, aldolase (SEQ ID NO: 10), RhaD aldolase (Bacteroides thetaiotaomicron, UniProt Q8A1A0)", "T1 construct": "made in house", "T1 sequence (Q8A1A0 whole entry, change not shown)": "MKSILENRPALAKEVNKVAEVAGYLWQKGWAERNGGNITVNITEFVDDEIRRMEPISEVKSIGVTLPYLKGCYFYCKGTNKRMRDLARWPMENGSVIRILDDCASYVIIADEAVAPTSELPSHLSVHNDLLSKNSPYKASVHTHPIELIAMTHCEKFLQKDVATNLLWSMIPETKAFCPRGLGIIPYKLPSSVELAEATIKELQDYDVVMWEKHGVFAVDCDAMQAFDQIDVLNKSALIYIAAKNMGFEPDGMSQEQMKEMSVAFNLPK", "experiment": "Screening of ketones as acceptors with DHAP as donor, DHAP disappearance assay plus mass spectrometry", "format": "biochemical", "details": "for DHAP disappearance (%): 10 eq of ketone, 8 μmol DHAP, CoCl2, pH 7.5, RT, 5 h, under Ar; for acceptor of the enzyme when DHAP is the donor: SEQ ID NO: 10", "procedure": "Enzyme corresponding to SEQ ID No 10 was purified for deeper characterization and a scale up was performed to analyze the new branched sugars. This aldolase was tested with DHAP as donor and various ketones under argon conditions to avoid oxidation of DHAP and cobalt ion (CoCl2) to optimize the activity. Conversion of the various reactions was determined by assaying DHAP disappearance using triose-phosphate-isomerase coupled with ca-glycerophosphate dehydrogenase enzymes. In addition the products of those reactions were analyzed by mass spectrometry. When the data from the two systems are in agreement, the compound is considered to be substrate of the enzyme.\n(§6) Prior to the reaction, all the solutions and solids were degased by bubbling or circulating Ar. Under an Ar atmosphere, 1 mg of aldolase (SEQ ID NO: 10, 6.5 U), 8 μmol of DHAP (123 μL of 65 mM solution), 8 μL CoCl2 (10 mM), 10 eq of electrophile (selected ketone) and water to reach 200 μL final volume were added in a vial. The pH was adjusted to 7.5. The reaction mixture was gently stirred at RT for 5 h. DHAP disappearance was followed spectrophotometrically. The aldolase was removed by filtration over ultra-centrifugal filter unit (Amicon, 10 kDa). The reaction medium was directly analyzed by mass spectrometry (liquid chromatography (Alliance 2695—Waters) coupled to high resolution mass spectrometry (Micromass Q-TOF—Waters))."}, "SEQ ID: 23 (FucA)": {"system": "SEQ ID: 23 (FucA)", "experiment": "LC/MS Orbitrap validation of products from 6 ketones, FucA enzyme", "format": "biochemical, Kyrpidia tusciae", "details": "5 to 10 eq of ketone, CoCl2, pH 7.3, 5 h at RT, LC/MS detection", "procedure": "as §1, §2, §3, §4, §5"}, "[3]": {"molecular_target": "RhaD of various microorganisms including E. coli (Escherichia coli, UniProt P32169)", "sequence (P32169 whole entry)": "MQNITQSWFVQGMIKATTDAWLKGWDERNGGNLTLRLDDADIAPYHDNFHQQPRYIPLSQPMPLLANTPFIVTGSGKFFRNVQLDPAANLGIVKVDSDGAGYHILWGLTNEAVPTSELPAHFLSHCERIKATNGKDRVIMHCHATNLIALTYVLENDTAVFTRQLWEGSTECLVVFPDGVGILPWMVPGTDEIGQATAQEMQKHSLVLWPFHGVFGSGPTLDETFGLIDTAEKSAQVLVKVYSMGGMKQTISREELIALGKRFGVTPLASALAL", "experiment": "Substrate spectrum of RhaD aldolases with respect to ketones", "format": "biochemical"}, "[4]": {"system": "L-fuculose-1-phosphate aldolase (FucA) of SEQ ID NO:22-23, and 26-34", "experiment": "Aldol reaction of DHAP with dihydroxyacetone (DHA), FucA aldolases", "format": "biochemical", "details": "10 eq of DHA, CoCl2, pH 7.5, RT, 5 h", "procedure": "(§7) Aldolases were tested with DHAP as donor and DHA as acceptor. Cobalt ion (CoCl2) to was added to optimize the activity. Conversion of the reactions was determined by assaying DHAP disappearance using triose-phosphate-isomerase coupled with α-glycerophosphate dehydrogenase enzymes. In addition the products of those reactions were analyzed by mass spectrometry. When the data from the two systems are in agreement, DHA is considered to be substrate of the enzyme.\nas §6, with “1” for “Prior to the reaction, all the solutions and solids were degased by bubbling or circulating Ar. Under an Ar atmosphere, 1”, “(RhaD, FucA or TagA),” for “(SEQ ID NO: 10, 6.5 U),”, “DHA” for “electrophile (selected ketone)”"}, "[5]": {"system": "DHA aldolases (i.e. FSA of E. coli), deoc aldolase, class I DHAP aldolases and pyruvate aldolases", "experiment": "Aldol reaction of DHAP with DHA, aldolases not belonging to class II DHAP aldolases", "format": "biochemical", "details": "data not shown"}, "[6]": {"molecular_target": "T2, L-tagatose 1.6 biP aldolase (TagA) of SEQ ID NO:35 (Escherichia coli, UniProt P0AB74)", "T2 construct": "made in house", "T2 sequence (P0AB74 whole entry)": "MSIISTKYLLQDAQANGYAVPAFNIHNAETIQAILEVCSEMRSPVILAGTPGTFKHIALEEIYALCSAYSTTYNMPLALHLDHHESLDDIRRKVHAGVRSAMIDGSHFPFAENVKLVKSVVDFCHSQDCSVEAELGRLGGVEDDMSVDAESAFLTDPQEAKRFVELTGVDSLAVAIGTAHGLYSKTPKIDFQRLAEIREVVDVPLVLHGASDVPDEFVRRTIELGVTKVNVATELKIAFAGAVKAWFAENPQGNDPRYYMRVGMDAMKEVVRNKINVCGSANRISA", "experiment": "Aldol reaction of DHAP with dihydroxyacetone (DHA), TagA aldolase", "format": "biochemical", "details": "10 eq of DHA, CoCl2, pH 7.5, RT, 5 h", "procedure": "as §7\nas §6, with “1” for “Prior to the reaction, all the solutions and solids were degased by bubbling or circulating Ar. Under an Ar atmosphere, 1”, “(RhaD, FucA or TagA),” for “(SEQ ID NO: 10, 6.5 U),”, “DHA” for “electrophile (selected ketone)”"}, "[7]": {"system": "RhaD aldolases of SEQ ID NO:1 to SEQ ID NO:21", "experiment": "Aldol reaction of DHAP with dihydroxyacetone (DHA), RhaD aldolases", "format": "biochemical", "details": "10 eq of DHA, CoCl2, pH 7.5, RT, 5 h", "procedure": "as §7\nas §6, with “1” for “Prior to the reaction, all the solutions and solids were degased by bubbling or circulating Ar. Under an Ar atmosphere, 1”, “(RhaD, FucA or TagA),” for “(SEQ ID NO: 10, 6.5 U),”, “DHA” for “electrophile (selected ketone)”"}},
  "data": [
    {"compound": "O=C(CO)[C@@H](O)CO", "note": "[L-erythrulose]", "values": [
      {"measurement": "ability of the tested RhaD to catalyze the reaction of DHAP with the ketone to form the expected product", "setting": "[1]", "result": "able to catalyze"},
      {"measurement": "DHAP disappearance (%)", "setting": "[2]", "result": 100, "unit": "%"},
      {"measurement": "ability of the tested FucA to catalyze the reaction of DHAP with the ketone to form the expected product", "setting": "SEQ ID: 23 (FucA)", "result": "able to catalyze"}
    ]},
    {"compound": "CC(=O)CCO", "note": "[drawing 99]", "values": [
      {"measurement": "DHAP disappearance (%)", "setting": "[2]", "result": 0, "unit": "%"}
    ]},
    {"compound": "butanone", "values": [
      {"measurement": "ability of RhaD to catalyze the reaction of DHAP with the ketone", "setting": "[3]", "result": "unable to catalyze"},
      {"measurement": "DHAP disappearance (%)", "setting": "[2]", "result": 0, "unit": "%"},
      {"measurement": "acceptor of the enzyme when DHAP is the donor", "setting": "[2]", "result": "not acceptors"}
    ]},
    {"compound": "O=C1CCCCC1O", "note": "(stereo not drawn) [2-hydroxycyclohexanone]", "values": [
      {"measurement": "ability of the tested RhaD to catalyze the reaction of DHAP with the ketone to form the expected product", "setting": "[1]", "result": "able to catalyze"},
      {"measurement": "DHAP disappearance (%)", "setting": "[2]", "result": 84, "unit": "%"},
      {"measurement": "ability of the tested FucA to catalyze the reaction of DHAP with the ketone to form the expected product", "setting": "SEQ ID: 23 (FucA)", "result": "able to catalyze"}
    ]},
    {"compound": "O=C(O)C(=O)CO", "note": "[hydroxypyruvate]", "values": [
      {"measurement": "ability of the tested RhaD to catalyze the reaction of DHAP with the ketone to form the expected product", "setting": "[1]", "result": "able to catalyze"},
      {"measurement": "DHAP disappearance (%)", "setting": "[2]", "result": 92, "unit": "%"},
      {"measurement": "ability of the tested FucA to catalyze the reaction of DHAP with the ketone to form the expected product", "setting": "SEQ ID: 23 (FucA)", "result": "able to catalyze"}
    ]},
    {"compound": "CC(=O)CC(C)=O", "values": [
      {"measurement": "DHAP disappearance (%)", "setting": "[2]", "result": 83, "unit": "%"}
    ]},
    {"compound": "CC(=O)C(C)O", "note": "(stereo not drawn)", "values": [
      {"measurement": "DHAP disappearance (%)", "setting": "[2]", "result": 96, "unit": "%"}
    ]},
    {"compound": "acetone", "values": [
      {"measurement": "ability of RhaD to catalyze the reaction of DHAP with the ketone", "setting": "[3]", "result": "unable to catalyze"},
      {"measurement": "DHAP disappearance (%)", "setting": "[2]", "result": 0, "unit": "%"},
      {"measurement": "acceptor of the enzyme when DHAP is the donor", "setting": "[2]", "result": "not acceptors"}
    ]},
    {"compound": "O=C1CCCC1", "note": "[cyclopentanone]", "values": [
      {"measurement": "ability of RhaD to catalyze the reaction of DHAP with the ketone", "setting": "[3]", "result": "unable to catalyze"},
      {"measurement": "DHAP disappearance (%)", "setting": "[2]", "result": 0, "unit": "%"},
      {"measurement": "acceptor of the enzyme when DHAP is the donor", "setting": "[2]", "result": "not acceptors"}
    ]},
    {"compound": "O=C(CO)CO", "note": "[dihydroxyacetone]", "values": [
      {"measurement": "ability of the enzymes to catalyse the reaction between DHAP and DHA", "setting": "[4]", "result": "same results"},
      {"measurement": "ability of the tested RhaD to catalyze the reaction of DHAP with the ketone to form the expected product", "setting": "[1]", "result": "able to catalyze"},
      {"measurement": "ability of the enzymes to catalyse the reaction between DHA and DHAP", "setting": "[5]", "result": "failed to catalyze"},
      {"measurement": "DHAP disappearance (%)", "setting": "[2]", "result": 100, "unit": "%"},
      {"measurement": "ability of the enzyme to catalyse the reaction between DHAP and DHA", "setting": "[6]", "result": "same results"},
      {"measurement": "ability of the enzymes to catalyse the reaction between DHAP and DHA", "setting": "[7]", "result": "able to catalyse"},
      {"measurement": "ability of the tested FucA to catalyze the reaction of DHAP with the ketone to form the expected product", "setting": "SEQ ID: 23 (FucA)", "result": "able to catalyze"}
    ]},
    {"compound": "hydroxyacetone", "values": [
      {"measurement": "ability of the tested RhaD to catalyze the reaction of DHAP with the ketone to form the expected product", "setting": "[1]", "result": "able to catalyze"},
      {"measurement": "DHAP disappearance (%)", "setting": "[2]", "result": 95, "unit": "%"},
      {"measurement": "ability of the tested FucA to catalyze the reaction of DHAP with the ketone to form the expected product", "setting": "SEQ ID: 23 (FucA)", "result": "able to catalyze"}
    ]},
    {"compound": "CC(=O)CCO", "note": "[4-hydroxybutan-2-one]", "values": [
      {"measurement": "acceptor of the enzyme when DHAP is the donor", "setting": "[2]", "result": "not acceptors"}
    ]},
    {"compound": "O=C(CCl)CCl", "values": [
      {"measurement": "DHAP disappearance (%)", "setting": "[2]", "result": 72, "unit": "%"}
    ]},
    {"compound": "CC(=O)C(C)=O", "note": "[butanedione]", "values": [
      {"measurement": "ability of the tested RhaD to catalyze the reaction of DHAP with the ketone to form the expected product", "setting": "[1]", "result": "able to catalyze"},
      {"measurement": "DHAP disappearance (%)", "setting": "[2]", "result": 100, "unit": "%"},
      {"measurement": "ability of the tested FucA to catalyze the reaction of DHAP with the ketone to form the expected product", "setting": "SEQ ID: 23 (FucA)", "result": "able to catalyze"}
    ]},
    {"compound": "O=C(CO)Cc1ccccc1", "values": [
      {"measurement": "DHAP disappearance (%)", "setting": "[2]", "result": 71, "unit": "%"}
    ]},
    {"compound": "CCC(=O)CO", "note": "[1-hydroxybutanone]", "values": [
      {"measurement": "DHAP disappearance (%)", "setting": "[2]", "result": 84, "unit": "%"}
    ]},
    {"compound": "CC(=O)C(=O)O", "values": [
      {"measurement": "DHAP disappearance (%)", "setting": "[2]", "result": 75, "unit": "%"}
    ]}
  ]
}
